The IC50 is the concentration needed to halve the response being measured.

From ChEMBL document CHEMBL1130201, “Antimalarial activity of molecules interfering with Plasmodium falciparum phospholipid metabolism. Structure-activity relationship analysis” (J Med Chem, 1997) come the findings set out here.

For the assay, the system named is Plasmodium falciparum. Nature of the assay: Inhibitory activity against Plasmodium falciparum. In kind it is functional, organism-based.

As for `CCCCCCCCCCCC[N+](C)(C)C`, where the note is “Plasmodium falciparum”, the IC50 turned out to be 0.5 µM.
In turn, `CCCCCCCCCCCCCC[N+](C)(C)CCO` showed an IC50 (Plasmodium falciparum) of 0.6 µM.
For the compound `NCCCO`, the IC50 (Plasmodium falciparum) stood at 800 µM.
`CCCCCCCCCCCC[N+](C)(C)CCBr` registered a half-maximal inhibitory concentration (IC50) (Plasmodium falciparum) of 0.21 µM.
The same measure, in the same setting: with `C[N+]1(CCO)CCOCC1` the figure was 4830 µM.
In the case of `C[C@H]1O[C@@H](C[N+](C)(C)C)C[C@@H]1O`, the IC50 (Plasmodium falciparum) is over 200 µM.
Same read-out and setting: then `CC(N)CO` (stereo unspecified), with 300 µM; and `CCCCCCCCCCCCCCCCCC[N+](C)(C)CCO`, with 1.3 µM.
Still for that read-out and setting: then `CCCCCCCCCCCC[N+](CCC)(CCC)CCC`, with 0.033 µM; and `CCCCCCCCCCCC[N+](CC)(CC)CC`, with 0.064 µM; and `NC(CO)CO`, with 50 µM.
The compound `CCCCCCCCCCC[N+](C)(C)C` came in with an IC50 (Plasmodium falciparum) of 0.5 µM.
The same measure, in the same setting: then `CCCCCCCCCCCC[N+](C)(CCO)CCCCCCCCCCCC`, with 0.84 µM; and `CCCCCCCCCC[N+](C)(C)CCO`, with 0.97 µM.
The same measure, in the same setting: with `OCCN1CCCCC1` the figure was 350 µM; with `OCCN1CCN(CCO)CC1`, 1200 µM; with `CCCCCCC[N+](C)(C)C`, 300 µM.
Still for that read-out and setting: with `CCCCCCCCCCCCCCCCCC[N+](CC)(CC)CCO` the figure was 0.62 µM; with `CC[N+](CC)(CCO)CCCCC[N+](CC)(CC)CCO`, 1260 µM.
As for `CCCCCCCCCCCCCCCCCC[N+](C)(C)Cc1ccccc1`, the IC50 (Plasmodium falciparum) is 0.7 µM.
The same measure, in the same setting: with `OCCN1CC1` the figure was 50 µM; with `OC1CCNC1` (stereo unspecified), over 1000 µM.
The same measure, in the same setting: then `CC[N+](C)(C)CCO`, with over 300 µM; and `CN(C)CCCCCCN(C)C`, with 130 µM.
The same measure, in the same setting: with `C[N+]1(CCCCC[N+]2(C)CCCC2)CCCC1` the figure was 650 µM; with `C[N+](C)(CCO)CC(=O)c1ccc(-c2ccc(C(=O)C[N+](C)(C)CCO)cc2)cc1`, 4 µM.
As to `CC[N+](CC)(CCO)CCCCCCCCCC[N+](CC)(CC)CCO`, the IC50 (Plasmodium falciparum) was found to be 2 µM.
Still for that read-out and setting: then `CCCCCCCCCCCCNCCOC`, with 2.1 µM; and `CCCCCCCCCCCCCC[N+](CC)(CC)CCO`, with 0.55 µM; and `C[N+]1(CCCCCCCCCC[N+]2(C)CCCC2)CCCC1`, with 0.15 µM.
Still for that read-out and setting: then `CCCCCCCCC[N+](C)(C)C`, with 1.6 µM.
Same read-out and setting: then `CCCCCCCCCCCCNC(CC)CO` (stereo unspecified), with 0.61 µM.
With `NCCCCCN`, half-maximal inhibition (Plasmodium falciparum) (IC50) required 2000 µM.
Still for that read-out and setting: with `C[Se+](C)CCO` the figure was 420 µM.
In the case of `CCCCCCCCCCCCNCCO`, inhibition (Plasmodium falciparum) was half-maximal at 0.51 µM (IC50).
The same measure, in the same setting: with `CCC(N)(CO)CO` the figure was 600 µM.
As to `CCCCCCCCCCCC[N+](C)(C)CCO`, half-maximal inhibition (Plasmodium falciparum) (IC50) was put at 0.48 µM.
The same measure, in the same setting: with `CCCCCCCCCCCC[N+](CC)(CC)CCO` the figure was 0.34 µM; with `C[N+](C)(C)CCCCCCCCCCCC[N+](C)(C)C`, 0.09 µM; with `OCCNCc1ccccc1`, 40 µM.
On the same count and under the same terms, with `CCCCCCCCCCCC[N+](C)(C)CCCC` the figure was 0.26 µM; with `C[N+](C)(CCO)Cc1ccccc1`, 112 µM.
In turn, `C[N+](C)(CCO)CCc1ccccc1` gave an IC50 (Plasmodium falciparum) of 110 µM.
On the same count and under the same terms, then `C[N+](C)(CCO)C1CCCCC1`, with 120 µM.
With `C[N+](C)(C)C1CCCCC1O` (stereo unspecified), where the note is “Plasmodium falciparum”, the IC50 is 700 µM.
Still for that read-out and setting: with `CCCCCCCCCC[N+](C)(C)C` the figure was 0.7 µM; with `OCCN1CCCC1`, 420 µM.
The compound `OC1CCCNC1` (stereo unspecified) yielded an IC50 (Plasmodium falciparum) of over 1000 µM.
Still for that read-out and setting: with `CC(C)(C)CCO` the figure was over 2000 µM; with `CCCCC[N+](C)(C)CCO`, 81.3 µM; with `CCCCCCCCCCCC[N+](C)(C)CC`, 0.11 µM.
Turning to `CC(O)CN` (stereo unspecified), the midpoint of inhibition (Plasmodium falciparum), the IC50, lay at 800 µM.
On to `CCC(N)CO` (stereo unspecified), for which, for the setting “Plasmodium falciparum”, the IC50 worked out at 80 µM.
On the same count and under the same terms, then `CCCCCCCCCCCC[N+](CC)(CCO)CCCCCCCCCCCC`, with 1.5 µM.
For `CC(Cc1ccccc1)[N+](C)(C)CCO` (stereo unspecified), the IC50 (Plasmodium falciparum) was 250 µM.
`CCCCCCCCCCCC[N+](C)(C)CCCCCCCCCCCC` showed an IC50 (Plasmodium falciparum) of 0.7 µM.
Compound `NCCCCCO` showed an IC50 (Plasmodium falciparum) of over 2000 µM.
Still for that read-out and setting: with `C[N+]1(CCO)CCCC1` the figure was 230 µM; with `CCCCCCCCCCCCN(C)CCO`, 1.3 µM; with `C[N+](C)(C)CCOP(=O)([O-])O`, 1200 µM.
The same measure, in the same setting: then `CCCCCCCCCCCC[N+](C)(C)CCC`, with 0.15 µM; and `CC(=O)OCC[N+](C)(C)C` [ACETYLCHOLINE CHLORIDE], with over 8000 µM.
As to `C[N+](C)(C)CC(=O)O` [BETAINE], the IC50 (Plasmodium falciparum) is over 8000 µM.
Still for that read-out and setting: then `C[N+](C)(C)CCCl` [CHLORMEQUAT CHLORIDE], with 200 µM; and `NCCS` [CYSTEAMINE], with 200 µM; and `CC(C)(N)CO` [DEANOL], with 900 µM.
`C[N+](C)(C)CCCCCCCCCC[N+](C)(C)C` [DECAMETHONIUM BROMIDE] gave an IC50 (Plasmodium falciparum) of 1.7 µM.
Still for that read-out and setting: then `OCCNCCO` [DIETHANOLAMINE], with 1100 µM; and `CCN(CC)CCO` [DIETHYLAMINOETHANOL], with 400 µM; and `CN(C)CCO` [DIMETHYLAMINOETHANOL], with 1300 µM.
Still for that read-out and setting: with `C[N+](C)(C)CCCCCC[N+](C)(C)C` [HEXAMETHONIUM BROMIDE] the figure was 700 µM.
Same read-out and setting: with `CN(C)CCOC(=O)COc1ccc(Cl)cc1` [MECLOFENOXATE] the figure was 500 µM; with `CCCCCCCCCCCCCC[N+](C)(C)Cc1ccccc1` [MIRISTALKONIUM CHLORIDE], 1 µM; with `CC[N+](CC)(CC)CC` [TETRYLAMMONIUM BROMIDE], 700 µM.
`CCCCCCCCCCCCCCCCCC[N+](C)(C)C` [TRIMETHYL-OCTADECYL-AMMONIUM CHLORIDE]: inhibition (Plasmodium falciparum) was half-maximal at 2.1 µM (IC50).
For the compound CETRIMIDE, 0.9 µM corresponded to half-maximal inhibition (IC50).
